The text below walks through data of PubChem BioAssay (NCI).

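Each compound was tested at five concentrations against cells in 96-well plates for 48 hours. TGI: total growth inhibition.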

Some test systems named below: U251 CNS; NCI-H23 lung; HCT-116 colon; UO-31 renal; HT29 colon; IGROV1 ovarian; OVCAR-8 ovarian; NCI-H226 lung; HCC-2998 colon; DU-145 prostate.
Assay in all cases: NCI tumour cell line growth inhibition, 48 h

`Nc1ccc(-c2nc3cc(F)ccc3s2)cc1CO`: the TGI in the assay with U251 CNS was 41.5 µM; in the assay on NCI-H23 lung, 42.1 µM; in the assay with HCT-116 colon, more than 100 µM; in the assay with UO-31 renal, more than 100 µM; in the assay on HT29 colon, more than 100 µM; in the assay on IGROV1 ovarian, 63.4 µM. Further, the TGI is more than 100 µM in the assay on OVCAR-8 ovarian, 0.409 µM in the assay with NCI-H226 lung, 6.17 µM in the assay with HCC-2998 colon and more than 100 µM in the assay with DU-145 prostate.
Regarding `O=c1c2ccccc2[nH]c(=S)n1-c1ccc(N=Nc2cccc3cc(O)ccc23)cc1`, the TGI in the assay on U251 CNS, in the assay on NCI-H23 lung, with HCT-116 colon, in the assay on UO-31 renal, in the assay on HT29 colon and in the assay with IGROV1 ovarian was more than 100 µM in each case. Also, the TGI with OVCAR-8 ovarian, with NCI-H226 lung, in the assay on HCC-2998 colon and in the assay on DU-145 prostate was more than 100 µM in each case.
For the compound `Nc1ccc(Oc2ccc(C34CC5CC(C3)CC(c3ccc(Oc6ccc(N)cc6)cc3)(C5)C4)cc2)cc1`, the TGI in the assay with U251 CNS was 21.6 µM; in the assay on NCI-H23 lung, 37.4 µM; with HCT-116 colon it was more than 44.8 µM; in the assay on UO-31 renal, more than 53.4 µM; with HT29 colon, more than 55 µM; in the assay with IGROV1 ovarian, 15.4 µM. The TGI with OVCAR-8 ovarian is 23.6 µM; with NCI-H226 lung it was 75.2 µM; in the assay on HCC-2998 colon, 19.3 µM; in the assay with DU-145 prostate, 33.3 µM.
For `NC(=S)N1N=C(c2ccccc2O)CC1c1ccccc1` (stereo not given), the TGI with U251 CNS was 43.8 µM; with NCI-H23 lung it was 61.3 µM; in the assay on HCT-116 colon, 28.1 µM; in the assay on UO-31 renal, 53.6 µM; with HT29 colon, 28.9 µM; in the assay on IGROV1 ovarian, 48.6 µM. Moreover, the TGI in the assay on OVCAR-8 ovarian was more than 100 µM; in the assay with NCI-H226 lung, 53.8 µM; with HCC-2998 colon, 27.3 µM; in the assay with DU-145 prostate, 81.3 µM.
